One molecule from patent publication US20130197030A1, “Substituted 1,3-Dioxanes and There Uses” (Evolva Sa, priority 2007, published 2013) can be followed below.

Assay [1] deals with T1, Thromboxane receptor (TP) (Homo sapiens, UniProt P21731).
T1 construct: expressed in transfected cells; host or cells: HEK-293 cells
T1 sequence (P21731 1-343): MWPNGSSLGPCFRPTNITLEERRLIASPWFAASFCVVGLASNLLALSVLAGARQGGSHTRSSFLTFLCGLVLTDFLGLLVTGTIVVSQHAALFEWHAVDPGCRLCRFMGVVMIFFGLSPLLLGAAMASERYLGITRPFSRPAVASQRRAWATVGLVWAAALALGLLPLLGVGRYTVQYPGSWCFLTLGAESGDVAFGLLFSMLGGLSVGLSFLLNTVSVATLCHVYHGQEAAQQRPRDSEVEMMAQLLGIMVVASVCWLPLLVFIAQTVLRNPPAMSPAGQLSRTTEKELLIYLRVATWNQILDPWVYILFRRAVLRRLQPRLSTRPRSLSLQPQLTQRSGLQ
Description: TP receptor radioligand binding. Particulars: Human recombinant HEK-293 cells, 5 nM [3H] SQ-29548. The protocol: The compounds were tested on radioligand binding assays for thromboxane receptor binding essentially as described by Hedberg et al. (1988) J. Pharmacol. Exp. Ther. 245:786-792 and Saussy et al. (1986) J. Biol. Chem. 261: 3025-3029 according to the following:
TP Receptor Radioligand Binding Studies:
Human recombinant HEK-293 cells,
Incubation Time, Temp: 30 minutes at 25° C.
Incubation Buffer: 50 mM Tris-HCl, pH 7.4, 154 mM NaCl
Non-Specific Ligand: 1 μM SQ-29548
The data were transformed to semi-log and then analysed using non-linear regression to a four-parameter dose-response curve Y=Bottom+(Top−Bottom)/(1+10̂((LogEC50−X)*HillSlope)) using the log(agonist) vs. response—Variable slope function of GraphPad Prism software (http://graphpad.com/help/prism5/prism5help.html?usingnonlinear_regression_step_by_s.htm).

Assay [2] deals with U-46619-induced platelet aggregation. Description: TP receptor platelet aggregation, rabbit. It counts as cell-based, New Zealand Rabbit. The protocol:
Thrombosis Research 33:277-288.
TP Receptor Platelet Aggregation—Rabbit:
New Zealand Rabbit (2.75±0.25 kg) platelet rich plasma
Assay: Inhibition of 1.5 μM U-46619-induced platelet aggregation Incubation Time, Temp: 5 minutes at 37° C. Incubation Buffer Trisodium Citrate (0.13 M)-treated platelet rich plasma
Time of Assessment: 5 minutes
Quantification Method Optical Density Change

In assay [3] the test system is arterial thrombosis in a mouse model. Description: Arterial thrombosis in a mouse model (FeCl3, femoral artery). Particulars: mice; dose not given. Type of assay: in vivo. On the procedure: The solutions are diluted 3.3-fold in saline and 100 μl/25 g is injected. Thus, the above-mentioned doses of 100 and 300 mg/kg of compound correspond to final doses of 30 and 100 mg/kg.
During the experiments, a soluble salt of the drug is provided (e.g., potassium salt of compound C), diluted in saline. Of this formulation, 100 μl/25 g is injected i.v. in the tail vein (dose of 100 mg/kg).
Solutions are injected (100 μl/25 g body weight) i.v. in the tail vein over 2 min to obtain doses of each compound of 30 mg/kg and 100 mg/kg. Aspirin is given the same way at a dose of 200 mg/kg. Clopidogrel is administered by oral gavage at a dose of 20 mg/kg at 6-7 hours prior to the experiment. The animals assigned to each group are matched for body weight. Mice are typically 8-10 weeks old males and are in a 100% Swiss genetic background.
The flow in each image is expressed as a percentage of that at the contralateral side, and data are averaged for all 120 images to determine total flow. The same analysis is performed for 10 min intervals (which gives essentially the same information as the area under the curve). […] Flow before treatment is recorded as 100%, and that in occluded arteries as 0%. At the end of the experiment, blood is collected on 0.01M citrate buffer by heart puncture for determination of blood cell counts. Plasma is prepared by centrifugation and stored at −20° C. for determination of drug levels.
Statistical analysis for differences between two groups is performed by non-parametric Student t-test. Occlusion times >30 min were considered equal to 30 min for statistical analysis. Significance is set at p<0.05.

In the case of `O=C(O)CC/C=C\CC1COC(c2coc3ccc(Cl)cc3c2=O)OC1c1ccccc1O` (racemic) [Compound 3, (Z)-6-(2-(6-Chloro-4-oxo-4H-chromen-3-yl)-4-(2-hydroxyphenyl)-1,3-dioxan-5-yl)hex-4-enoic acid], in assay [1], the IC50 came out at 15.2 nM and the Ki is 9.9 nM. Besides, in assay [1] (at 10 μM), the inhibition at 10 µM came out at 97%. Also, the “Inhibition of platelet aggregation (in words)” value in assay [2] was “potent inhibitors of platelet aggregation”. For the same molecule, the inhibition at 30 µM in assay [2] (Oryctolagus cuniculus, at 30 μM, 1.5 μM U-46619, platelet rich plasma) is 100%. Moreover, in assay [3], the Occlusion time result is listed as “prolongs the occlusion time” and the Total blood flow entry is “improves total blood flow”.
